Source: ChEMBL document CHEMBL3425474, “Biphenyl-ethyl-pyrrolidine derivatives as histamine h3 receptor modulators for the treatment of cognitive disorders” (ACS Med Chem Lett, 2015)
pIC50: −log10 of the molar value.

target: Histamine H3 receptor (Homo sapiens, UniProt Q9Y5N1); assay: Modulation of human histamine H3 receptor expressed in HEK293 cells assessed as change in forskolin-stimulated cAMP level after 1 hr by HTRF assay; format: functional, cell-based
Sequence (Q9Y5N1 whole entry): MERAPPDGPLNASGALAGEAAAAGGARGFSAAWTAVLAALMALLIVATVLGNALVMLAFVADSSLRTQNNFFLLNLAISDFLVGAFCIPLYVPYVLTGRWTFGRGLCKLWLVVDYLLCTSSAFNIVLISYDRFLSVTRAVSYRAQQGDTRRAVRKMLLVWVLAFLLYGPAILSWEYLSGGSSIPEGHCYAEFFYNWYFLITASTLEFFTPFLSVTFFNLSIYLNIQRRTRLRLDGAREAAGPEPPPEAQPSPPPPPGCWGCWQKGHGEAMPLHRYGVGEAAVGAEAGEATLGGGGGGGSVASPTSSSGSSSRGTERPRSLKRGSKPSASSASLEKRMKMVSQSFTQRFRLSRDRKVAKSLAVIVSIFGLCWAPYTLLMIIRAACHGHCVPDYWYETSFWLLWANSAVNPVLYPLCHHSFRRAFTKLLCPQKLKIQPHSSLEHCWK

pIC50	SMILES
9.02	C[C@@H]1CCCN1CCc1ccc(-c2ccc(CCNC(=O)C(C)(C)C(=O)OC(C)(C)C)cc2)cc1
8.68	C[C@@H](C(=O)NCCc1ccc(-c2ccc(CCN3CCC[C@H]3C)cc2)cc1)C(=O)OC(C)(C)C
7.82	COC(=O)CCCC(=O)NC1(c2ccc(-c3ccc(CCN4CCC[C@H]4C)cc3)cc2)CCCC1
9.00	COC(=O)CC(=O)NCCc1ccc(-c2ccc(CCN3CCC[C@H]3C)cc2)cc1
8.72	COC(=O)CC(=O)NC1(c2ccc(-c3ccc(CCN4CCC[C@H]4C)cc3)cc2)CCCC1
8.68	C[C@@H]1CCCN1CCc1ccc(-c2ccc(C3(NC(=O)CCCC(=O)O)CCCC3)cc2)cc1
8.92	COC(=O)C(C)(C)C(=O)Nc1ccc(-c2ccc(CCN3CCC[C@H]3C)cc2)cc1
8.60	C[C@@H]1CCCN1CCc1ccc(-c2ccc(NC(=O)CCC(=O)O)cc2)cc1
